Where two headings read alike, the source gives them in different places.
Assays:
[1] = target: T1, purified recombinant human IDO1 (rhIDO1) (Homo sapiens, UniProt P14902); settings: cited from earlier work
T1 construct: purchased Origene

[2] = target: T1, purified recombinant human IDO1 (rhIDO1); assay: rhIDO1 enzymatic assay (conversion of L-Trp to L-KYN, p-dimethylaminobenzaldehyde readout); type: biochemical; settings: for inhibition at 1 µM: rhIDO1, compound 1 µM, mean ± SE of two independent experiments; for IC50: rhIDO1, concentration-response curves, at least three experiments in triplicate
Procedure: All the 22 synthesized compounds were then biologically evaluated (Table 1). The compounds were tested for their ability to inhibit human IDO1 in an enzyme-based assay using a purified recombinant human IDO1 (rhIDO1) enzyme (Table 1). Each compound (1 µM) was added to the reaction buffer and the rhIDO1 conversion of L-Trp to L-KYN was determined spectrophotometrically using p-dimethylaminobenzaldehyde. As reference, imidazothiazole compound 1-((3-(4-bromophenyl)-3aH-thieno [2,3-b]pyrrol-4-yl)methyl)-3-(4-cyanophenyl)urea, displaying an IC50 value of 0.08 µM, was chosen.
rhIDO1 activity was determined as follows. In brief, the standard reaction mixture (200 μL) contained 50 mM potassium phosphate buffer (KPB) (pH 6.5), 20 mM ascorbic acid (neutralized with NaOH and HCl) (Sigma Aldrich), 100 μg/mL catalase (Sigma Aldrich), 10 μM methylene blue (Alfa Aesar, Heysham, Lancashire, UK), 100 µM L-tryptophan (Sigma Aldrich), 50 nM rhIDO1 (Origene, Bologna, Italy), and dimethyl sulfoxide (DMSO) solution of the compound (4 μL). The reaction was carried out at 37 °C for 60 min and stopped by the addition of 40 μL of 30% (w/v) CCl3COOH. After heating at 50 °C for 15 min, the reaction mixture was centrifuged at 1500× g for 10 min. The supernatant (150 μL) was transferred into a well of a 96-well microplate and mixed with 150 μL of 2% (w/v) p-dimethylaminobenzaldehyde (Ehrlich’s reagent) in acetic acid. The yellow pigment derived from kynurenine was measured at 490 nm using an Ultramark Microplate Imaging System (Bio-Rad, Hercules, CA, USA). IC50 values were calculated from concentration-response curves obtained in at least three different experiments run in triplicate.

IDO1 = test system: IDO1; set-up: method as in PMID 29398544; settings: cited from earlier work

T1 sequence (P14902 whole entry): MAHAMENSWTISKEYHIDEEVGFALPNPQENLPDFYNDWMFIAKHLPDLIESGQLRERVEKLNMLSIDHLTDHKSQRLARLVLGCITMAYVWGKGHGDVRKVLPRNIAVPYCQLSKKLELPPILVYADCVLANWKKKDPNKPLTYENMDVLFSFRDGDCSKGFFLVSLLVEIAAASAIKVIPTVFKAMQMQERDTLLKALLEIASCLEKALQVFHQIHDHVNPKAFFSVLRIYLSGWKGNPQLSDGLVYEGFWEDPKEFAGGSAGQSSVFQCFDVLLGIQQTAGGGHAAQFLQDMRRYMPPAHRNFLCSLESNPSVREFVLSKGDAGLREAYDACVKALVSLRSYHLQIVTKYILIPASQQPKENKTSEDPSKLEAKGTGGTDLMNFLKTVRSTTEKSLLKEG

| Compound | inhibition at 1 µM [2] | melting point | other results |
| --- | --- | --- | --- |
| N#Cc1ccc(NC(=O)NCC2=CN=C3SC=C(c4ccc(Br)cc4)C23)cc1 (stereo not shown) [1-((3-(4-bromophenyl)-3aH-thieno [2,3-b]pyrrol-4-yl)methyl)-3-(4-cyanophenyl)urea] | – | – | IC50 ([1]; rhIDO1, read-out: IC50 (rhIDO1)): 80 nM |
| Brc1ccc(-c2csc3ncc(Cn4cc(Cc5ccccc5)nn4)n23)cc1 [11a, 5-((4-Benzyl-1H-1,2,3-triazol-1-yl)methyl)-3-(4-bromophenyl)imidazo[2,1-b]thiazole] | 30 ± 6.7% | 106.5 to 107.5 °C | – |
| Brc1ccc(-c2csc3ncc(Cn4cc(-c5ccccc5)nn4)n23)cc1 [11b, 3-(4-Bromophenyl)-5-((4-phenyl-1H-1,2,3-triazol-1-yl)methyl)imidazo[2,1-b]thiazole] | 35 ± 2.7% | 199 to 199.5 °C (dec.) | – |
| COc1ccc(-c2cn(Cc3cnc4scc(-c5ccc(Br)cc5)n34)nn2)cc1 [11c, 3-(4-Bromophenyl)-5-((4-(4-methoxyphenyl)-1H-1,2,3-triazol-1-yl)methyl)imidazo[2,1-b]thiazole] | 57 ± 13% | 118 to 119 °C (dec.) | – |
| Nc1ccc(-c2cn(Cc3cnc4scc(-c5ccc(Br)cc5)n34)nn2)cc1 [11d, 4-(1-((3-(4-Bromophenyl)imidazo[2,1-b]thiazol-5-yl)methyl)-1H-1,2,3-triazol-4-yl)aniline] | 17 ± 1.2% | 117 to 118 °C (dec.) | – |
| N#Cc1ccc(-c2cn(Cc3cnc4scc(-c5ccc(Br)cc5)n34)nn2)cc1 [11e, 4-(1-((3-(4-Bromophenyl)imidazo[2,1-b]thiazol-5-yl)methyl)-1H-1,2,3-triazol-4-yl)benzonitrile] | 28 ± 1.5% | 190 to 191 °C (dec.) | – |
| N#CCc1ccc(-c2cn(Cc3cnc4scc(-c5ccc(Br)cc5)n34)nn2)cc1 [11f, 2-(4-(1-((3-(4-Bromophenyl)imidazo[2,1-b]thiazol-5-yl)methyl)-1H-1,2,3-triazol-4-yl)phenyl)acetonitrile] | 74 ± 5.8% | 121.5 to 122.5 °C | IC50 [2]: 500 ± 40 nM |
| Brc1ccc(-c2csc3ncc(Cn4cc(C5CC5)nn4)n23)cc1 [11g, 3-(4-Bromophenyl)-5-((4-cyclopropyl-1H-1,2,3-triazol-1-yl)methyl)imidazo[2,1-b]thiazole] | 61 ± 7.1% | 145.5 to 146.5 °C | – |
| OC1(c2cn(Cc3cnc4scc(-c5ccc(Br)cc5)n34)nn2)CCCCC1 [11h, 1-(1-((3-(4-Bromophenyl)imidazo[2,1-b]thiazol-5-yl)methyl)-1H-1,2,3-triazol-4-yl)cyclohexanol] | 35 ± 2.4% | 163.5 to 164.5 °C (dec.) | – |
| OCCCc1cn(Cc2cnc3scc(-c4ccc(Br)cc4)n23)nn1 [11i, 3-(1-((3-(4-Bromophenyl)imidazo[2,1-b]thiazol-5-yl)methyl)-1H-1,2,3-triazol-4-yl)propan-1-ol] | 0% | – | – |
| O=C(O)CCc1cn(Cc2cnc3scc(-c4ccc(Br)cc4)n23)nn1 [11j, 3-(1-((3-(4-Bromophenyl)imidazo[2,1-b]thiazol-5-yl)methyl)-1H-1,2,3-triazol-4-yl)propanoic acid] | 81 ± 7.9% | 148 to 148.5 °C (dec.) | IC50 [2]: 1100 ± 70 nM |
| N#CCCCCc1cn(Cc2cnc3scc(-c4ccc(Br)cc4)n23)nn1 [11k, 5-(1-((3-(4-Bromophenyl)imidazo[2,1-b]thiazol-5-yl)methyl)-1H-1,2,3-triazol-4-yl)pentanenitrile] | 62 ± 5.6% | – | – |
| O=C(COC(=O)Cc1ccc(O)cc1)NCc1cnc2scc(-c3ccc(Br)cc3)n12 [compound 2] | – | – | ability to permeate the cell and inhibit IDO1 in a cell-based assay (IDO1): not able to significantly permeate the cell and to inhibit IDO1 in a cell-based assay |
| CN(CC(=O)NCc1cnc2scc(-c3ccc(Br)cc3)n12)C(=O)Cc1ccc([N+](=O)[O-])cc1 [compound 3] | – | – | ability to permeate the cell and inhibit IDO1 in a cell-based assay (IDO1): not able to significantly permeate the cell and to inhibit IDO1 in a cell-based assay; IC50 ([1]; first series, published in 2018, read-out: IC50): 800 nM |

Further lines, with some results ahead:

| inhibition at 1 µM [2] | melting point | Compound | other results |
| --- | --- | --- | --- |
| 63 ± 4.3% | 177 to 177.5 °C | O=C(Cn1cc(Cc2ccccc2)nn1)NCc1cnc2scc(-c3ccc(Br)cc3)n12 [12a, 2-(4-Benzyl-1H-1,2,3-triazol-1-yl)-N-((3-(4-bromophenyl)imidazo[2,1-b]thiazol-5-yl)methyl)acetamide] | – |
| 61 ± 5.5% | 251.5 to 252.5 °C (dec.) | O=C(Cn1cc(-c2ccccc2)nn1)NCc1cnc2scc(-c3ccc(Br)cc3)n12 [12b, N-((3-(4-Bromophenyl)imidazo[2,1-b]thiazol-5-yl)methyl)-2-(4-phenyl-1H-1,2,3-triazol-1-yl)acetamide] | – |
| 5 ± 1.2% | 183 to 184 °C | COc1ccc(-c2cn(CC(=O)NCc3cnc4scc(-c5ccc(Br)cc5)n34)nn2)cc1 [12c, N-((3-(4-Bromophenyl)imidazo[2,1-b]thiazol-5-yl)methyl)-2-(4-(4-methoxyphenyl)-1H-1,2,3-triazol-1-yl)acetamide] | – |
| 56 ± 4.7% | 217 to 218 °C (dec.) | Nc1ccc(-c2cn(CC(=O)NCc3cnc4scc(-c5ccc(Br)cc5)n34)nn2)cc1 [12d, 2-(4-(4-Aminophenyl)-1H-1,2,3-triazol-1-yl)-N-((3-(4-bromophenyl)imidazo[2,1-b]thiazol-5-yl)methyl)acetamide] | – |
| 50 ± 4.5% | 267 to 267.5 °C (dec.) | N#Cc1ccc(-c2cn(CC(=O)NCc3cnc4scc(-c5ccc(Br)cc5)n34)nn2)cc1 [12e, N-((3-(4-Bromophenyl)imidazo[2,1-b]thiazol-5-yl)methyl)-2-(4-(4-cyanophenyl)-1H-1,2,3-triazol-1-yl)acetamide] | – |
| 55 ± 7.2% | 231 to 231.5 °C | N#CCc1ccc(-c2cn(CC(=O)NCc3cnc4scc(-c5ccc(Br)cc5)n34)nn2)cc1 [12f, N-((3-(4-Bromophenyl)imidazo[2,1-b]thiazol-5-yl)methyl)-2-(4-(4-(cyanomethyl)phenyl)-1H-1,2,3-triazol-1-yl)acetamide] | – |
| 70 ± 9.2% | 225 to 225.5 °C (dec.) | O=C(Cn1cc(C2CC2)nn1)NCc1cnc2scc(-c3ccc(Br)cc3)n12 [12g, N-((3-(4-Bromophenyl)imidazo[2,1-b]thiazol-5-yl)methyl)-2-(4-cyclopropyl-1H-1,2,3-triazol-1-yl)acetamide] | IC50 [2]: 200 ± 10 nM |
| 63 ± 4.1% | 165 to 166 °C | O=C(Cn1cc(C2(O)CCCCC2)nn1)NCc1cnc2scc(-c3ccc(Br)cc3)n12 [12h, N-((3-(4-Bromophenyl)imidazo[2,1-b]thiazol-5-yl)methyl)-2-(4-(1-hydroxycyclohexyl)-1H-1,2,3-triazol-1-yl)acetamide] | – |
| 45 ± 2.8% | 169 to 170 °C (dec.) | O=C(Cn1cc(CCCO)nn1)NCc1cnc2scc(-c3ccc(Br)cc3)n12 [12i, N-((3-(4-Bromophenyl)imidazo[2,1-b]thiazol-5-yl)methyl)-2-(4-(3-hydroxypropyl)-1H-1,2,3-triazol-1-yl)acetamide] | – |
| 33 ± 4.5% | 153 to 154 °C (dec.) | O=C(O)CCc1cn(CC(=O)NCc2cnc3scc(-c4ccc(Br)cc4)n23)nn1 [12j, 3-(1-(2-(((3-(4-Bromophenyl)imidazo[2,1-b]thiazol-5-yl)methyl)amino)-2-oxoethyl)-1H-1,2,3-triazol-4-yl)propanoic acid] | – |
| 50 ± 11% | 179.5 to 180.5 °C | N#CCCCCc1cn(CC(=O)NCc2cnc3scc(-c4ccc(Br)cc4)n23)nn1 [12k, N-((3-(4-Bromophenyl)imidazo[2,1-b]thiazol-5-yl)methyl)-2-(4-(4-cyanobutyl)-1H-1,2,3-triazol-1-yl)acetamide] | – |

From article PMC6572114, “Synthesis, Docking and Biological Evaluation of a Novel Class of Imidazothiazoles as IDO1 Inhibitors” (Molecules, 2019)
